# PMC7915858, “Complementary Effects of Carbamylated and Citrullinated LL37 in Autoimmunity and Inflammation in Systemic Lupus Erythematosus” (International Journal of Molecular Sciences, 2021)
# System: SLE CD4 T-cells (CXCR5)
# Experiment: CXCR5 (TFH marker) expression on stimulated CD4 T-cells, flow cytometry
# Type: cell-based, human
# From the text: Antibodies to CD4, CD8, CD3 conjugated with various fluorochromes (FITC, phycoerythrin (PE), peridinin-chlorophyll-protein (PerCp), allophycocyanin (APC), PE-Cy7) were from BD Biosciences or eBiosciences (San Diego, CA). For further LL37-specific T-cell characterization and B-cell characterization we used: APC-Cy7-CXCR5 (FAB190), APC or PE-CD38, CD19, CD20, CD27, antibodies, purchased from BD Biosciences, eBiosciences, Novus Biologicals (Littleton, CO), R&D (Minneapolis, MN). Appropriate isotype-matched controls were purchased from the same companies. PerCp-7-AAD was from BD Pharmingen, DAPI from Invitrogen (Thermo Fisher, Carlsbad, CA, USA).
# PBMCs were purified from EDTA-treated blood, on Ficoll-Hypaque (Pharmacia Fine Chemicals, Uppsala, Sweden) and were incubated (10^5 cells/well) in 96-well-flat-bottom-microplates (BD) in T-cell-medium (RPMI 1640, 10% heat-inactivated human serum, HS, Gibco), 2 mM L-glutamine, 10 U/mL penicillin and 100 μg/mL streptomycin), with/without peptides. We performed assays on fresh cells, within 1-to-3 h from collection or on PBMCs frozen in 90% FCS−10% DMSO, whose viability we assessed by Trypan blue exclusion, with an inverted microscope. Recovery of live cells was between 65 and 85% of the frozen number. At day 3 and 5, BrdU was added (1 μg/mL). BrdU-incorporation was detected by APC-labeled anti-BrdU antibody (BD Pharmingen), after surface staining for CD4, CD3, CD8 and analyzed by flow cytometry (Gallios, BeckmanCoulter, Brea, CA, USA). Internal control for T-cell viability and proliferation was PHA treatment (2 μg/mL). SI for proliferation was calculated by dividing percent of BrdU-staining in the presence of each peptide antigen (LL37, carb-LL37, cit-LL37, LL37 reverse, REV; cit-LL37 reverse, cit-REV; carb-LL37 reverse, carb-REV) by the percent obtained in the untreated cells. SI for proliferation was considered positive when the values of percent of BrdU positive cells was three times higher than the values obtained with the control peptides (SI > 3). Assays were repeated twice with each patient. In rare cases in which background proliferation (culture with REV, cit-REV, carb-REV), exceeded antigen-specific proliferation (that is response to LL37, carb-LL37, cit-LL37), the assay was repeated three times. Concomitant phenotype analysis of LL37-responder T-cells included staining for CD3, CD4, CD8, CXCR5 (CXCR5 was assessed on BrdU/CD3/CD4-positive cells).
substance,measurement,setting,value
L*LGDFFRK*SK*EK*IGKEFK*RIVQRIK*DFLRNLVPRTES [carb-LL37],Correlation of CXCR5 fold-increase with anti-native LL37 antibody response,"Spearman, Figure 4e",significantly correlated
same,Correlation of T-cell proliferation with CXCR5 up-regulation,"Spearman, Figure 3d",positive and significance correlation
same,CXCR5 up-regulation on antigen-specific T-cells,fold-increase with respect to T-cells proliferating to control carb-REV,up-regulation of the TFH cell marker CXCR5
same,CXCR5-positive cells among total CD3+CD4+ cells,"representative plot, Figure S5b left panels",8.95%
same,CXCR5-positive cells among CD3+CD4+BrdU+ cells,"representative plot, Figure S5b middle panels",39.4%
same,CXCR5-positive cells among CD3+CD4+BrdU- cells,"representative plot, Figure S5b right panels",3.08%
